Earlier results in PMC7721954, “Preclinical comparison of four [^18F, ^natGa]rhPSMA-7 isomers: influence of the stereoconfiguration on pharmacokinetics” (EJNMMI Research, 2020).

Design: method as in PMID 16888726, doi:10.1016/j.jfluchem.2010.10.008
Details: cited from earlier work

Q: For `CC(C)(C)[Si](F)(c1ccc(C(=O)O)cc1)C(C)(C)C` [SiFA-moiety, 4-(di-tert-butylfluorosilyl)benzoic acid], which “log P” value is on record?
A: 3.6
